Test results as given in US4328231A, “Method of treating psoriasis” (Richter Gedeon Vegyeszeti Gyar Rt., priority 1979, dated 1982).
Structures can show the parent of a compound that is named as a salt.

Columns and labels:
phosphodiesterase [1] = assay: Inhibition of phosphodiesterase isolated from rat brain tissue (radioisotopic technique, tritium-labelled c-AMP); format: biochemical; details: 20 minutes incubation, % of control
phosphodiesterase [2] = assay: as above; format: biochemical; details: 20 minutes incubation, % of control; remark: listed apart in the source
Procedure: Our model experiments were carried out by means of phosphodiesterase isolated from animal tissues. More particularly, the enzyme was isolated from the brain tissue of rats following the method of J. Schroder and H. V. Richenberg [Biochem. Biophys. Acta 302, 50 (1973)], whereupon the isolated phosphodiesterase was purified by the method of J. G. Hardman and E. W. Sutherland [J. Biol. Chem. 240, 3704 (1965)]. Finally, the activity of the purified enzyme was measured by the radioisotopic technique of G. Poch, in the presence of an excess amount of tritium-labelled c-AMP, in an incubator, initially without the inhibiting system and thereafter in the presence of a compound of the formula (I) as an inhibitor. The enzyme activity was determined after an incubation time of 20 minutes [N. S. Arch. Pharmacol. 268, 272 (1971)]. From the salts of the test compounds of the formula (I) aqueous 10^-3 molar stock solutions were prepared, their pH was adjusted to 4 to 5. To the incubated enzyme preparations suitable amounts of the stock solution were added in order to obtain a series of test solutions containing a compound of the formula (I) in a concentration of 10^-5, 5× 10^-5, 10^-4, 5×10^-4 and 10^-3 moles/lit. […] The degree of inhibition (decrease of enzyme activity) was expressed in % of the control (enzyme preparation containing no inhibitor).

psoriasis = details: Voorhees et al.; cited from earlier work
phosphodiesterase [3] = details: Voorhees et al.; cited from earlier work
adenyl cyclase = details: Voorhees et al.; cited from earlier work

Structure (SMILES) | Inhibition (%) obtained by 5 × 10^-6 moles/lit. concentrations of the test compounds (phosphodiesterase [1]) | Inhibition (%) obtained by 1 × 10^-4 moles/lit. concentrations of the test compounds (phosphodiesterase [2]) | Inhibition (%) obtained by 1 × 10^-5 moles/lit. concentrations of the test compounds (phosphodiesterase [2]) | Inhibition (%) obtained by 5 × 10^-5 moles/lit. concentrations of the test compounds (phosphodiesterase [2]) | influencing psoriasis (psoriasis) | inhibition of the function of phosphodiesterase (phosphodiesterase [3]) | stimulation of the function of adenyl cyclase (adenyl cyclase)
CC[C@@]12C=C(COC(C)=O)n3c4c(c5ccc(OC)cc53)CCN(CCC1)[C@H]42 [Tartrate salt of apovincinol-acetate] | 30.9% | 62.3% | 34.8% | 45.2% |  |  | 
CCOC(=O)C1=C[C@]2(CC)CCCN3CCc4c(n1c1cc(OC)ccc41)[C@@H]32 [Apovincinic acid ethyl ester tartrate] |  | 58.6% | 23.7% | 44.0% |  |  | 
Cn1c(=O)c2[nH]cnc2n(C)c1=O [Theophylline] |  |  |  |  | succeeded in influencing psoriasis | inhibit the function of phosphodiesterase | 
NC[C@H](O)c1ccc(O)c(O)c1 [norepinephrine] |  |  |  |  | succeeded in influencing psoriasis |  | stimulate the function of adenyl cyclase
CC[C@@]12C=C(C(=O)OC)n3c4c(c5ccc(OC)cc53)CCN(CCC1)[C@H]42 [Apovincine-KHSO4] | 36.6% | 71.8% | 49.0% | 59.4% |  |  | 
CC[C@@]12C=C(C(=O)OC)n3c4c(c5ccc(OC)cc53)CCN(CCC1)[C@H]42 [Apovincine-tartrate] | 38.1% | 81.6% | 48.7% | 76.9% |  |  | 
CC[C@@]12C=C(C(=O)NN)n3c4c(c5ccccc53)CCN(CCC1)[C@H]42 [Apovincaminic acid-hydrazide, apovincaminic acid hydrazide] |  | 57.0% |  | 32.0% |  |  | 
CC[C@@]12C=C(C(=O)OC)n3c4c(c5ccccc53)CCN(CCC1)[C@H]42 [Apovincamine] | 21.9% | 54.8% | 20.3% | 33.5% |  |  | 
COc1ccc(Cc2nccc3cc(OC)c(OC)cc23)cc1OC [Papaverine, reference compound] |  | 56.4% |  | 36.4% | succeeded in influencing psoriasis | inhibit the function of phosphodiesterase | 
CC[C@@]12C=C(C(N)=O)n3c4c(c5ccccc53)CCN(CCC1)[C@H]42 [Apovincaminic acid amide] | 10.0% | 76.9% | 22.0% | 60.0% |  |  | 
